The test system of data set [1] is TT cells. In words: Cytotoxicity test using CPT-11-encapsulating liposomes. Particulars: Homo sapiens. In kind it is cell-based. Here is the method: TT cells were seeded into a 96-well plate at a density of 10^4 cells/well, and free CPT-11, 1.6Oct-CL or SL was added thereto at various concentrations prior to incubation for 48 hours, 72 hours and 96 hours. Next, after rinsing the cells with PBS, a coloring reagent (Cell Counting kit-8, Dojindo Laboratories) was added at 10 μL per well (100 μL), the absorbance at 450 nm was measured and IC50 (μM) was calculated.

In data set [2] the test system is TT cells. In words: Effect of CPT-11-encapsulating liposomes in vivo, TT cell tumor-bearing mice (four mice per group). Here is the method:
The following test was conducted to examine the in vivo effect of CPT-11-encapsulating Oct-modified liposomes. After transplanting 10^7 TT cells into mice (ICR nu/nu mice, 6-week-old, female, Oriental Yeast Co., Ltd.), tumors with tumor volumes of […] formed. To four mice in each group there were administered unmodified liposomes (CL) at 10 mg/kg body weight, as the CPT-11 amount, liposomes modified with 1.6 mol % Oct-PEG-DSPE (1.6Oct-CL), and liposomes modified with 1.6 mol % Oct-PEG-DSPE and 0.9% mol % PEG-DSPE (1.6Oct-SL). The administration was twice (1st and 4th days) through the caudal vein. As a control there was administered physiological saline and free CPT-11 (30 mg/kg), three times (1st, 4th and 7th days). The tumor size and body weight were periodically measured. […] The column headed “% ILS” in Table 3 contains the values calculated by the formula: [(mean survival days of treated group)−(mean survival days of control group)/(mean survival days of control group)]×100(%), with physiological saline as the control. The column headed “Median” in Table 3 contains the median values for survival time (days) for each group consisting of N animals.

Data set [3] relates to TT cells. Nature of the data set: Competitive inhibition test of intracellular uptake. Type of data set: cell-based, human. Particulars: free Oct in 20-fold molar excess (84 nmol/ml), 37° C., 2 hours. Here is the method:
A competitive inhibition test was conducted to examine whether or not the intracellular uptake observed in Example 2 takes place via somatostatin receptor (SSTR).
The competitive inhibition is shown schematically in FIG. 2(A).

The test system of data set [4] is TT cells. In words: Cytotoxicity test using non-drug-encapsulating liposomes. Type of data set: cell-based, human. The settings on record: 0.042-8.4 μM Oct, 96 hours, no drug encapsulated. Here is the method: Next, a cytotoxicity test was conducted using non-CPT-11-encapsulating liposomes, in order to evaluate the effect of the ligand (Oct) on cytotoxicity. […] After rinsing the cells with PBS, a coloring reagent was added and the absorbance at 450 nm was measured.
In FIG. 4, the four bars for each concentration are, from the left, the cell survival rates (%) for free Oct, Empty 1.6Oct-CL, Empty 4.4Oct-CL and Empty SL, respectively.

[5] abbreviates: liposomes 10 mg/kg as CPT-11 twice, free CPT-11 30 mg/kg three times.

On to `CCc1c2c(nc3ccc(OC(=O)N4CCC(N5CCCCC5)CC4)cc13)-c1cc3c(c(=O)n1C2)COC(=O)[C@]3(O)CC` [Free CPT-11, irinotecan], for which the IC50 came to 13.4 µM in the data set on TT cells [1] (48 hrs incubation), 6.6 µM in the data set on TT cells [1] (72 hrs incubation) and 2.2 µM in the data set with TT cells [1] (96 hrs incubation). Besides, in the data set on TT cells [2] (liposomes 10 mg/kg as CPT-11, caudal vein, 1st and 4th days, free CPT-11 30 mg/kg, 1st, 4th and 7th days), the “Survival time Median” value is given as 88 (4) days. In addition, in the data set on TT cells [2] (setting [5]), the “survival time and survival rate (life-lengthening effect)” value is on record as “no life-lengthening effect was observed”. Also, in the data set on TT cells [2] (setting [5]), the tumor size result is listed as “tumor size increased”. The “Survival time % ILS” value with TT cells [2] (physiological saline as control, liposomes 10 mg/kg as CPT-11 twice, free CPT-11 30 mg/kg three times) is reported as 30.4%.

On to `C[C@@H](O)[C@@H]1NC(=O)[C@H](CCCCN)NC(=O)[C@@H](Cc2c[nH]c3ccccc23)NC(=O)[C@H](Cc2ccccc2)NC(=O)[C@@H](NC(=O)[C@H](N)Cc2ccccc2)CSSC[C@@H](C(=O)N[C@H](CO)[C@@H](C)O)NC1=O` [free Oct, octreotide], for which the “effect of competitor on intracellular uptake of DXR-encapsulating 1.6Oct-CL” value in the data set on TT cells [3] was “did not affect”. In the data set with TT cells [4], the “cytotoxicity (cell survival rate)” value is on record as “Cytotoxicity was observed”.

As a reminder, the IC50 is the concentration that inhibits the measured activity by half. Low readings indicate higher potency, high ones lower potency.

The values above are taken from patent US9289463B2, “Octreotide-modified nanomedicine for cancer treatment or cancer palliative care” (NANOSION CO., LTD., priority 2010, dated 2016).
